# Results: the METLIN SMRT retention time set (Domingo-Almenara et al. 2019)
# Experiment: gradient 5% acetonitrile 3 min, to 50% in 2 min, to 85% in 15 min, held 3 min, 100 µL/min
# Conditions: column: Zorbax Extend-C18 2.1 x 50 mm; eluents: water / acetonitrile, 0.1% formic acid
# How it was run: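 A Zorbax Extend-C18 column (2.1 × 50 mm, 1.8 μm) run at 100 μL/min with water and acetonitrile, both containing 0.1% formic acid, separated mixtures of ~100 pure standards. The HPLC was coupled to a quadrupole time-of-flight mass spectrometer operated in positive and negative ionization mode, with dead and dwell volumes of 40 μL and 900 μL. Each retention time was taken from a computationally picked adduct peak that was then manually inspected.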
row,Compound,RP-LC retention time [s]
1,CC1(C)[C@H]2CC[C@](C)(C2)[C@H]1NS(=O)(=O)c1ccc(F)cc1,1140
2,O=C(Nc1cnc(N2CCOCC2)nc1)c1ccc(Br)cc1,810
3,Cc1cc2c(N3CCN(CCO)CC3)ncnc2s1,520
4,COCCn1nc2n(c1=O)CCC1(CC2)CCN(C(=O)C2CCOC2)CC1 (centres undefined),587
5,COc1cccc(F)c1-c1nc(C)c(C(=O)Nc2nc3ccccc3[nH]2)s1,779
6,COc1ccc(C(=O)N2CC(F)(F)C[C@H]2COc2ccc3c(c2)CCC3)cn1,1150
7,O=C(NCc1ccc2c(c1)OCO2)c1ccc2ncnc(N3CCOCC3)c2c1,605
8,O=C(c1cccc(OC(F)(F)F)c1)N1CCN(c2cc(-c3cccs3)[nH]n2)CC1,828
9,COc1cc(-c2oc3cc(O)cc(O)c3c(=O)c2O[C@@H]2O[C@H](CO)[C@@H](O)[C@H](O)[C@H]2O)ccc1O,684
10,CCCn1cc(CCNS(=O)(=O)c2ccc(C3CCCCC3)cc2)c2cccnc21,1210
11,Cn1nc(C(=O)NC2CCCN(c3cc(-c4ccc(Cl)cc4)[nH]n3)C2)c2ccccc21 (centres undefined),935
12,O=C(CCCc1ccccc1)N1CCCC1c1nc(-c2ccccc2)no1 (centres undefined),694
13,CCn1c(=O)c(N2CCCC(C(=O)N3CCN(c4cccc(Cl)c4)CC3)C2)nc2ccccc21 (centres undefined),1240
14,Cc1ccc(NC(=O)c2cc3c(=O)n(CC(C)C)ccc3n2C)cc1Cl,1020
15,CCn1cc(-c2nc(CC(=O)NCc3ccc(F)cc3)cs2)c2cccnc21,865
16,COc1ccc(-n2ccc(=O)c(-c3nc(-c4ccc(Cl)cc4)no3)n2)cc1,938
17,CCc1nn2c(CNC(=O)c3ccc(OC)cc3)c(-c3ccccc3)nc2s1,881
18,COCC(=O)NC1CCC12CCN(C(=O)CC1CCCCC1)CC2 (centres undefined),778
19,Nc1cc(C2CCN(C(=O)c3ccc(F)c(F)c3)CC2)no1,680
20,CCN1C(=O)c2cccnc2Sc2cc(NC(=O)c3ccsc3)ccc21,796
21,O=C(CSCc1ccccc1)NCC1(CO)CC1,660
22,COc1ccc(NC(=O)N2C[C@@H](F)C[C@H]2C(=O)N2CCc3ccccc3C2)cc1F,797
23,CCn1cc(CCNS(=O)(=O)Cc2ccccc2Cl)c2cccnc21,804

row,Compound,RP-LC retention time [s]
1,Oc1c(CN2CCN(c3ccccc3)CC2)cc(Br)c2cccnc12,830
2,O=C(COc1ccc(Cl)cc1Cl)NCC1CCN(C(=O)Oc2ccccc2)CC1,987
3,CN(C)C(CNC(=O)NCc1cccs1)c1cn(C)c2ccccc12 (centres undefined),586
4,Cc1scc2nc(C(=O)NCc3ccc(F)cc3)nc(N3CCCC3)c12,561
5,COCCC(=O)N1CCCn2nc(-c3cccs3)cc2C1,682
6,CC1Oc2ccc(-c3csc(NC(=O)c4ccc(Br)cc4)n3)cc2NC1=O (centres undefined),990
7,CN(c1ccc(F)cc1)S(=O)(=O)N1CCCC(C(=O)NCCCN2CCc3ccccc3C2)C1 (centres undefined),706
8,CCc1ccc(CNC(=O)c2ccc3ncnc(N4CCCC4)c3c2)cc1,697
9,COc1ccc(-c2nc3c4cnn(-c5ccccc5Cl)c4ncn3n2)cc1OC,845
10,O=C(O)C1CCN(S(=O)(=O)c2ccc(Cl)c(-c3nnc(-c4ccccc4)o3)c2)CC1,887
11,CCn1c(=O)oc2cc(-c3noc(CNC(=O)c4ccccc4)n3)ccc21,801
12,CCc1ccc(NC(=O)Nc2cccn3nc(C)nc23)cc1,869
13,Cc1ccc(-n2c(N3CCCC(C(=O)Nc4ccccc4)C3)nc3ccsc3c2=O)cc1 (centres undefined),966
14,CCc1nnc2nc(N3CCN(C(=O)C(C)Oc4ccccc4)CC3)cc(C)n12 (centres undefined),622
15,Cc1nnc2c(=O)n(CC(=O)NCc3ccc(N(C)C)cc3)c3cccnc3n12,570
16,Cc1ccc(N2CCN(Cc3nc(-c4ccc(N5CCCC5)nc4)no3)CC2)cc1,678
17,CC(C)Cn1nc2n(c1=O)CCN(S(=O)(=O)Cc1ccccc1)CC2,777
18,CC(C)N1CCN(Cc2ccc(C(=O)NCc3ccc(C(F)(F)F)cc3)cc2)C(=O)C1=O,741
19,Nc1ncnc(N2CCN(c3ccc(Cl)c(Cl)c3)CC2)c1[N+](=O)[O-],909
20,CC1CCN(C(=O)C2CCN(S(C)(=O)=O)c3cc(Cl)ccc3O2)CC1 (centres undefined),922
21,Cc1ccc(NC(=O)N2CCCC2c2nc(-c3ccc(F)cc3F)no2)cc1C (centres undefined),1050
22,CSc1ccc(-c2nc3cc(C)ccn3c2Nc2ccccc2C)cc1,790
23,CCCCOc1ccc(C(=O)N(Cc2ccc(Br)o2)C2CCS(=O)(=O)C2)cc1 (centres undefined),1090

row,Compound,RP-LC retention time [s]
1,CCS(=O)(=O)N1CC(c2nc(-c3ccc(F)cc3)no2)C2(CCOCC2)C1 (centres undefined),877
2,CC(=O)Nc1ccc(NC(=O)c2nn(-c3ccc(F)cc3)c3ccccc3c2=O)cc1,778
3,O=C(NCc1ccc(F)cc1)C1=C2CCCN2c2ccc(F)cc2S1(=O)=O,864
4,CNC(=O)N1CCCC(c2cccc(C(=O)NCc3ccc(Br)cc3)c2)C1 (centres undefined),830
5,O=C(NC1CC1)c1c2c(nc3ccc(F)cc13)CCCC2,610
6,CC(C)CCNC(=O)C1CCCN(c2nc3ccsc3c(=O)n2Cc2ccc(F)cc2)C1 (centres undefined),954
7,CN(CC(=O)NC1CCCCC1)S(=O)(=O)c1c[nH]c(C(=O)N2CCCC2)c1,722
8,CSc1ccc(CNC(=O)c2cn3ccc(C)cc3n2)cc1,699
9,O=C1[C@H]2CN(Cc3cc(Cl)ccc3F)C[C@H]2C(=O)N1CCc1ccccc1,840
10,Cc1ccc2c(Nc3cccc(C(C)C)c3)c(C(=O)N3CCC(C)CC3)cnc2n1,737
11,OC(COc1ccccc1)CN1CCN(c2ccccc2)CC1 (centres undefined),724
12,CCOC(=O)C1CCC(CNC(=O)Nc2cccc(-c3nnc(-c4ccccc4)o3)c2)CC1 (centres undefined),975
13,O=C(CC1CCCC1)N1CCCC(c2nc(-c3ccccc3)n[nH]2)C1 (centres undefined),801
14,CCn1cc(-c2nc(C)c(C(=O)NCc3cccnc3)s2)c2cccnc21,629
15,Cc1ccc(NC(=O)N2CCC(n3cnc4cccnc43)CC2)cc1F,682
16,Cc1ccc(NS(=O)(=O)c2c(C)nc3sc4cc(C)ccc4n3c2=O)c(C)c1,1230
17,Cc1ccc2c(c1)N(S(C)(=O)=O)CCC(C(=O)Nc1cccc(Cl)c1C)O2 (centres undefined),1020
18,COc1ccc(-c2nnc(-c3ccc(C)c(S(=O)(=O)N4CCCCC4)c3)o2)cc1,1120
19,Cc1ccc2nc(N3CCN(c4ccccc4)CC3)c(-c3noc(C)n3)cc2c1,699
20,COc1ccccc1N1CCN(c2nnc(-c3nnc(C)o3)c3ccccc23)CC1,889
21,O=C(Cn1cnc2ccccc21)N1CCN(C(=O)C2CC2c2cccs2)CC1 (centres undefined),592
22,Cc1nnc(-c2nnc(NCc3ccccc3Cl)c3ccccc23)o1,909
23,CCn1nc(N2CCCC(NS(=O)(=O)c3c(C)nn(C)c3C)C2)ccc1=O (centres undefined),642

row,Compound,RP-LC retention time [s]
1,CCOc1ccc(NC(=O)c2cnc(N3CCN(C)CC3)nc2N)cc1,602
2,Cn1c(=O)c2c(ncn2CC(=O)N2CCC(CCOc3ccc(F)cc3)C2)n(C)c1=O (centres undefined),748
3,COCCCNC(=O)c1sc2ncn(CC(=O)N3CC(C)CC(C)C3)c(=O)c2c1C (centres undefined),713
4,COc1cccc(N2C(=O)C3N=NN(c4ccc(C)c(F)c4)C3C2=O)c1 (centres undefined),1110
5,CCCn1c(=O)c(N2CCN(C(=O)CC(C)C)CC2)nc2ccccc21,1010
6,Cc1ccc(Nc2c(-c3ccccc3Cl)nc3ccc(Br)cn23)cc1,1110
7,COc1cccc(CNC(=O)C2(C)CCN(C(=O)NCC3CCCO3)CC2)c1 (centres undefined),668
8,Cc1cccc(-n2c(=O)c3c(cc(C)n3C)n(CC(=O)Nc3cccc(C#N)c3)c2=O)c1,846
9,Cc1cccc(CNS(=O)(=O)c2ccc3c(c2)CCCC(=O)N3)c1,754
10,COC(=O)c1c(C)[nH]c(C(=O)N2CCC(CC(=O)NCc3cccc(F)c3)CC2)c1C,735
11,O=C(NCCc1ccsc1)C(=O)Nc1ccccc1F,878
12,CCN1CCN(C(=O)c2cc3c(=O)n(Cc4ccco4)ccc3nc2C)CC1,664
13,Cc1ccc2c(=O)c(C(=O)N3CCCCC3)cn(CC(=O)NC3CCCC3)c2n1,694
14,Cc1ccn2cc(-c3ccc(NS(=O)(=O)c4ccc5cccc6c5c4CC6)cc3)nc2n1,748
15,COC(=O)C1CCN(C(=O)C(=O)Nc2c3c(nn2-c2ccc(Cl)cc2)CSC3)CC1,671
16,CCN1CN=C(Nc2nc(C)c3cc(OC)ccc3n2)NC1,622
17,CCCN(CC1CCOC1)C(=O)Nc1ccc(C)cc1 (centres undefined),764
18,N#Cc1cccc(S(=O)(=O)N2CCc3nc[nH]c3C2)c1,592
19,CCn1cc(-c2ccccc2)cc1C(=O)NCCN1CCCC1,670
20,CC(=O)Nc1cccc(-c2nc(-c3ccc4c(c3)oc(=O)n4C)no2)c1C,750
